Patent US20100221763A1, “Specific Acceptors for Transferases to Saccharides and Method for Obtaining and Using Same” (Health Research, Inc, priority 2005, published 2010)

Legend:
[1] = tested on: LNCaP α2,3(O)ST; assay: Sialyltransferase assay with LNCaP cell extract; assay type: biochemical, human; details: for LNCaPα2,3(O)ST %: Table III, compound 7.5 mM, 100% = 30100 CPM (3-O-MeGalβ1,4GlcNAcβ1,6(Galβ1,3)GalNAcα-O-Bn)
Procedure: The prostate carcinoma cell line, LNCaP, was grown in RPMI 1640 supplemented with 10% fetal bovine serum and antibiotics (penicillin, streptomycin and amphotericin B) under conditions recommended by American Type Culture Collection (Manassas, Va.). The cells were homogenized with 0.1M Tris-Maleate pH6.3 containing 2% Triton X-100 using a Dounce all glass hand-operated homogenizer. The homogenate was centrifuged at 16,000 g for 1 h at 4° C. Protein concentration in supernatant was measured using the BCA assay (Pierce Biotech, Inc., Rockford, Ill.), with BSA as the standard. The supernatant was adjusted to 5 mg protein/ml by adding the necessary amount of extraction buffer and then stored frozen at −20° C. until use. 10 μl aliquot of this extract was used in assays run in duplicate.
(§1) The incubation mixtures run in duplicate contained 0.1M NaCacodylate buffer pH6.0, the acceptor (typically at 7.5 mM, or as indicated in some experiments), CMP-[9 ^3H] NeuAc (typically 0.2 μci; 20 μci/nmol or as indicated in some experiments) and the enzyme in a total volume of 20 μl. The control incubation mixtures contained everything except the acceptor. Incubation was carried out for 2 h at 37° C. The enzymatic transfer of [9-^3H] NeuAc to a typical acceptor was linear for 2 h and less than 30% CMP-[9-^3H] NeuAc was utilized. Chromatography, using either Dowex-1-Formate, Sep-Pak C18 or Biogel P2, was applied to separate radioactive product from un-reacted [9-^3H] NeuAc as described below.
(§2) The radioactive products from neutral allyl and methyl glycosides as well as non-glycosides were measured by fractionation on Dowex-1-Formate (Bio-Rad: AG-1X8; 200-400 mesh; format form) as follows: The incubation mixture was diluted with 1.0 ml water and passed through AG-1-formate column (1.0 ml bed volume in a Pasteur pipet which had been washed with 5 ml of 2M Formic acid followed by 10 ml water). The column was washed twice with 1.0 ml water after the entry of the sample and then eluted with 3.0 ml of 0.1M NaCl. The radioactivity present in water and 0.1M NaCl eluates were measured separately using 3a70 scintillation cocktail (Research Products International, Mount Prospect, Ill.) and a Beckman LS6500 scintillation counter. The CPM values were corrected by subtracting the blank CPM. Any radioactivity present in the water eluate (as noticed in the case of some methylglycosides) was added to the corresponding CPM value of 0.1M NaCl eluate. The radioactive products from sulfated and/or sialylated methylglycosides were also measured by the above procedure, only the elution of the AG-1-Formate column was continued further with 3.0 ml of 0.2M NaCl for achieving a complete elution of the radioactive product, a correction being made as before by subtracting the corresponding blank values.
(§3) The radioactive products from benzylglycosides and monosialylated benzylglycosides were measured by hydrophobic chromatography on Sep-Pak C18 cartridge (Waters, Milford, Mass.) and eluting the product with 3.0 ml methanol (30). The radioactivity was determined by liquid scintillation as above.
(§4) For such work, a Biogel P2 column (Fine Mesh; 1.0×116.0 cm) was used with 0.1M pyridine acetate pH5.4 as the eluent at room temperature. The effluent fractions were monitored for radioactivity and the first peak containing radioactivity was collected, lyophilized to dryness, dissolved in 200 μl of water and stored frozen at −20° C. for thin layer chromatography (TLC) and other experimentation.

[2] = molecular target: T1, Rat recombinant α2,3(N)ST (Rattus norvegicus, UniProt Q02734); assay: Sialyltransferase assay with cloned α2,3(N)ST; assay type: biochemical; details: for Cloned Sialyltransferase Activities α2,3(N) ST %: Table III, compound 7.5 mM, 100% = 38140 CPM (Galβ1,4GlcNAcβ1,6(3-O-MeGalβ1,3)GalNAcα-O-Bn)
T1 construct: purchased Calbiochem
T1 sequence (Q02734 29-374 limits assumed): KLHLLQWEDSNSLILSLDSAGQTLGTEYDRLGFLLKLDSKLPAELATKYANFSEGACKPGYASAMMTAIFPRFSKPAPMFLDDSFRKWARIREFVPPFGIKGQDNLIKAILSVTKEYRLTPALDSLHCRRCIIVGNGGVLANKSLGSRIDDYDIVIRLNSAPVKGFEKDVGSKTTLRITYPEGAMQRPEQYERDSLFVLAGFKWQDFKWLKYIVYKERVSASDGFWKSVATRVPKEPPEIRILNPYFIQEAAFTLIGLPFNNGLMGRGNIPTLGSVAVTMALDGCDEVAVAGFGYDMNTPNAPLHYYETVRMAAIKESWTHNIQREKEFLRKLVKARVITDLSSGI
Procedure: (§5) Rat recombinant α2,3(O)ST, α2,3(N)ST and α2,6(N)ST were purchased from Calbiochem and stored at either −20° C. or −70° C. as recommended by the supplier. […] 10 μl aliquots of the diluted enzymes were used in the assays run in duplicate.
as §1, §2, §3, §4

[3] = molecular target: T2, Rat recombinant α2,6(N)ST (Rattus norvegicus, UniProt P13721); assay: Sialyltransferase assay with cloned α2,6(N)ST; assay type: biochemical; details: for Cloned Sialyltransferase Activities α2,6(N)ST %: Table III, compound 7.5 mM, 100% = 30440 CPM (Galβ1,4GlcNAcβ1,6(3-O-MeGalβ1,3)GalNAcα-O-Bn)
T2 construct: purchased Calbiochem
T2 sequence (P13721 1-403): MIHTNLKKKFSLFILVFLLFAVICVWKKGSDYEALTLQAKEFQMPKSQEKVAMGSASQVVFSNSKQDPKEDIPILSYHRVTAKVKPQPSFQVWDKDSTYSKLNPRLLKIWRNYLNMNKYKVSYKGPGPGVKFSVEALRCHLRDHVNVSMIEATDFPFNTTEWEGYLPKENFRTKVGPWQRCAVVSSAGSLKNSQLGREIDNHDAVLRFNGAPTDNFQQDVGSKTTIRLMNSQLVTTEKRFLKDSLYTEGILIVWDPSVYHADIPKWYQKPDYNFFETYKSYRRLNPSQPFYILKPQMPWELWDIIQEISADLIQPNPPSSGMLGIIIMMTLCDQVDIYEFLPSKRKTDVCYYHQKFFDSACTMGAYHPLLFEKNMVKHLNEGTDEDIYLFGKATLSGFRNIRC
Procedure: as §5, §1, §2, §3, §4

[4] = molecular target: T3, Rat recombinant α2,3(O)ST (Rattus norvegicus, UniProt Q11205); assay: Sialyltransferase assay with cloned α2,3(O)ST; assay type: biochemical; details: for Cloned Sialyltransferase Activities α2,3(O) ST %: Table III, compound 7.5 mM, 100% = 39200 CPM (3-O-MeGalβ1,4GlcNAcβ1,6(Galβ1,3)GalNAcα-O-Bn)
T3 construct: purchased Calbiochem
T3 sequence (Q11205 1-350): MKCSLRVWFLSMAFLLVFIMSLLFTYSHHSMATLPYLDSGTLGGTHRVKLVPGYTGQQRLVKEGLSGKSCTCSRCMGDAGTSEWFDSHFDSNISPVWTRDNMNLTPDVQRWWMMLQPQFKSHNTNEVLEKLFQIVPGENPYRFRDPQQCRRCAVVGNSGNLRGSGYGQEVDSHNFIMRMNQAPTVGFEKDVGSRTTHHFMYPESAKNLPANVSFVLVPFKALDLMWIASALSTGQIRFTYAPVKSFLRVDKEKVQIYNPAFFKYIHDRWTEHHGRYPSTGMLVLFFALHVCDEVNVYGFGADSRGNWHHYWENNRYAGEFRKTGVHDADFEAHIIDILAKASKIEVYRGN
Procedure: as §5, §1, §2, §3, §4

Row | Cloned Sialyltransferase Activities α2,3(N) ST % [2] | Cloned Sialyltransferase Activities α2,6(N)ST % [3] | Cloned Sialyltransferase Activities α2,3(O) ST % [4] | Sialyltransferase activity (%) Cloned α2,3(N)ST ([2]; Table I, acceptor 7.5 mM, 100% = 29520 CPM (Galβ1,4GlcNAcβ-O—Al)) [%] | Sialyltransferase activity (%) Cloned α2,6(N)ST ([3]; Table I, acceptor 7.5 mM, 100% = 43500 CPM (Galβ1,4GlcNAcβ-O—Al)) [%] | Sialyltransferase activity (%) Cloned α2,3(O)ST ([4]; Table I, acceptor 7.5 mM, 100% = 40560 CPM (3-O-MeGalβ1,4GlcNAcβ1,6(Galβ1,3)GalNAcα-O-Bn)) [%] | Structure (SMILES) | LNCaPα2,3(O)ST % [1] [%] | Sialyltransferase activity (%) LNCaP α2,3(O)ST ([1]; Table I, acceptor 7.5 mM, 100% = 30930 CPM (3-O-MeGalβ1,4GlcNAcβ1,6(Galβ1,3)GalNAcα-O-Bn)) [%] | acceptor concentration at which maximum activity is reached (FIG. 3D) ([1]; LNCaPα2,3(O)ST) [mM]
1 | 7.2% | 11.3% | 102.9^12% |  |  |  | CC(=O)N[C@H]1[C@H](OC[C@H]2O[C@H](OCc3ccccc3)[C@H](NC(C)=O)[C@@H](O[C@@H]3O[C@H](CO)[C@H](O)[C@H](O)[C@H]3O)[C@H]2O)O[C@H](CO)[C@@H](O[C@@H]2O[C@H](CO)[C@H](O)[C@H](F)[C@H]2O)[C@@H]1O [3-FGalβ1,4GlcNAcβ1,6(Galβ1,3)GalNAcα-O-Bn] | 91.5 |  | 
2 |  |  |  | 123.1 | 3.0 | 42.1 | C=CCOC1OC(CO)C(O)C(OC2OC(CO)C(O)C(O)C2O)C1NC(C)=O (centres unmarked) [Galβ1,3GlcNAcβ-O—Al] |  | 3.7 | 
3 | 100.6% | 101.3% | 101.3% |  |  |  | CO[C@@H]1[C@H](O)[C@@H](O)[C@H](O[C@H]2[C@@H](O)[C@@H](CO[C@@H]3O[C@H](CO)[C@@H](O[C@@H]4O[C@H](CO)[C@H](O)[C@H](O)[C@H]4O)[C@H](O)[C@H]3NC(C)=O)O[C@H](OCc3ccccc3)[C@@H]2NC(C)=O)O[C@@H]1CO [Galβ1,4GlcNAcβ1,6(4-O-MeGalβ1,3)GalNAcα-O-Bn] | 112.0 |  | 0.15
4 | 96.9^25% | 77.7^19% | 77.2% |  |  |  | CC(=O)N[C@H]1[C@H](OC[C@H]2O[C@H](OCc3ccccc3)[C@H](NC(C)=O)[C@@H](O[C@@H]3O[C@H](CO)[C@H](O)[C@H](F)[C@H]3O)[C@H]2O)O[C@H](CO)[C@@H](O[C@@H]2O[C@H](CO)[C@H](O)[C@H](O)[C@H]2O)[C@@H]1O [Galβ1,4GlcNAcβ1,6(3-FGalβ1,3)GalNAcα-O-Bn] | 1.7 |  | 
